Results published in publication PMC6270011, “Design and Synthesis of Arylthiophene-2-Carbaldehydes via Suzuki-Miyaura Reactions and Their Biological Evaluation” (Molecules, 2013).
In brackets after ≈: the same amount, converted by molar mass. Like-named read-outs stand apart in the source and are kept apart here.

Legend:
[1] = Nitric oxide (NO) scavenging assay; format: biochemical
From the text: Nitric oxide (NO) is a free radical causing inflammatory disorders and cancer in the human body when sodium nitroprusside decomposes to produce nitric oxide. The antioxidant activity of various thiophene derivatives has been reported in the literature and it has also been observed that compounds with high antioxidant activity served as antitumor agents. The newly synthesized compounds reacted directly with nitric oxide and inhibited nitrite formation in an excellent way.
The reaction mixtures comprising sample solution (2 µL), phosphate buffer (17 µL) and sodium nitroprusside (20 µL) were incubated at 37 °C for 2 h in well plates. Then Griess reagent (20 µL, 0.3% sulphanilic acid in glacial acetic acid + 0.1% naphthylethylenediamine (NED): equal volumes of both solutions mixed just before use) was added to each well plate and the mixture kept at room temperature for 20 min to develop the color. The absorbance was measured at 528 nm by using an ELISA reader. The results were processed using Gen 5 software. All the reactions were performed in triplicate. Positive control (containing known antioxidant) and control (containing all samples) were run in parallel. Negative control was used to calibrate the instrument. The % age antioxidant activity was determined by using the following formula: % antioxidant activity = [(Absorbance of control − absorbance of sample)/(Absorbance of control)] × 100

Bacillus subtilis = assay: Antibacterial activity (disc / inhibition zone) against Bacillus subtilis; details: for zone of inhibition at 50 µg/mL / zone of inhibition at 25 µg/mL: read-out: Inhibition zone, B. subtilis
Staphylococcus aureus = assay: Antibacterial activity (disc / inhibition zone) against Staphylococcus aureus; details: read-out: Inhibition zone, S. aureus
Escherichia coli = assay: Antibacterial activity (disc / inhibition zone) against Escherichia coli; details: for zone of inhibition at 50 µg/mL / zone of inhibition at 25 µg/mL: read-out: Inhibition zone, E.coli
Pseudomonas aeruginosa = assay: Antibacterial activity (disc / inhibition zone) against Pseudomonas aeruginosa; details: for zone of inhibition at 50 µg/mL / zone of inhibition at 25 µg/mL: read-out: Inhibition zone, P. aeruginosa; for IC50: read-out: IC50 against Pseudomonas aeruginosa
Salmonella typhi = assay: Antibacterial activity (disc / inhibition zone) against Salmonella typhi; details: Salmonella enterica; for zone of inhibition at 50 µg/mL / zone of inhibition at 25 µg/mL: read-out: Inhibition zone, S. typhi
[2] = tested on: human red blood cells (erythrocytes); format: cell-based
Procedure: Three mL of freshly obtained human blood was placed in heparinized tubes to avoid coagulation, gently mixed and poured into a sterile 15 mL Falcon tube and centrifuged for 5 min at 1,000 ×g. The supernatant was discarded and red blood cells were washed three times with chilled (4 °C) sterile isotonic phosphate buffer saline pH 7.4 (5 mL). Erythrocytes (10^8 cells/mL) were maintained for each assay by dilution with phosphate buffer saline. Erythrocytes were counted on a heamacytometer. Twenty µL of each compound was mixed with red blood cells suspension (180 μL) separately. The samples were incubated at 37 °C for 35 min. The samples were placed on ice for 5 min and then agitated at 1,000 ×g for 5 min. Supernatant (100 µL) were taken from each tube and diluted 10 times with chilled (4 °C) phosphate buffered saline. Triton X-100 (0.1% v/v) was taken as a positive control and PBS was negative control and then subjected to the same process. […] The percentage RBSs lyses for each sample was calculated.

Shigella dysenteriae = assay: Antibacterial activity (disc / inhibition zone) against Shigella dysenteriae; details: read-out: Inhibition zone, S. dysenteriae
[3] = 25 µg/mL, read-out: % Activity at 25 µg (NO scavenging)
[4] = 50 µg/mL, read-out: % Activity at 50 µg (NO scavenging)
[5] = 100 µg/mL, read-out: % Activity at 100 µg (NO scavenging)
[6] = human erythrocytes, 37 °C, 35 min

Compound	IC50 (NO scavenging) [1] [µg/mL]	inhibition [1, 3] [%]	inhibition [1, 4] [%]	inhibition [1, 5] [%]	zone of inhibition at 50 µg/mL (Bacillus subtilis) [mm]	zone of inhibition at 50 µg/mL (Staphylococcus aureus) [mm]	melting point [°C]	zone of inhibition at 50 µg/mL (Escherichia coli) [mm]	zone of inhibition at 50 µg/mL (Pseudomonas aeruginosa) [mm]	zone of inhibition at 50 µg/mL (Salmonella typhi) [mm]	Haemolytic activity, percentage of lysis (Average ± SD) [2, 6] [%]	zone of inhibition at 50 µg/mL (Shigella dysenteriae) [mm]	zone of inhibition at 25 µg/mL (Bacillus subtilis) [mm]	zone of inhibition at 25 µg/mL (Staphylococcus aureus) [mm]	zone of inhibition at 25 µg/mL (Escherichia coli) [mm]	zone of inhibition at 25 µg/mL (Pseudomonas aeruginosa) [mm]	zone of inhibition at 25 µg/mL (Salmonella typhi) [mm]	zone of inhibition at 25 µg/mL (Shigella dysenteriae) [mm]	Haemolytic activity, in words [2]	other results
O=Cc1cc(-c2ccccc2)cs1 [2a, 4-Phenylthiophene-2-carbaldehyde]	92.5 (≈ 491 µM)	12 ± 0.037	33 ± 0.0035	48 ± 0.049	61 ± 0.14	63 ± 0.18	57 to 59	47 ± 0.15	67.6 ± 0.001	61 ± 0.13	3.947 ± 0.078	63 ± 0.18	–	–	–	–	–	–	–	–
O=Cc1cc(-c2cc(C(F)(F)F)cc(C(F)(F)F)c2)cs1 [2b, 4-(3,5-Bis(trifloromethyl)phenyl)thiophene-2-carbaldehyde]	66.6 (≈ 205 µM)	10 ± 0.02	45 ± 0.001	60 ± 0.021	59 ± 0.1	62.4 ± 0.1	95 to 97	–	67 ± 0.01	63 ± 0.25	5.003 ± 0.078	62.4 ± 0.1	23 ± 0.09	36.6 ± 0.4	18 ± 0.13	42 ± 0.02	33 ± 0.2	33 ± 0.05	–	–
O=Cc1cc(-c2ccc(Cl)s2)cs1 [2c]	83.3 (≈ 364 µM)	18 ± 0.007	40 ± 0.038	55 ± 0.04	60 ± 0.01	64 ± 0.11	229 to 231	24 ± 0.17	60 ± 0.009	64 ± 0.5	3.934 ± 0.095	64 ± 0.11	36.2 ± 0.05	34 ± 0.01	14 ± 0.14	45 ± 0.019	34 ± 0.05	35 ± 0.01	–	IC50 (Bacillus subtilis; read-out: IC50 against Bacillus subtilis): 39.4 µg/mL (≈ 172 µM)
N#Cc1cc(-c2csc(C=O)c2)cc(C(F)(F)F)c1 [2d, 3-(5-Formylthiophene-3-yl)-5-(trifloromethyl)benzonitrile]	45.6 (≈ 162 µM)	12 ± 0.025	58 ± 0.01	73 ± 0.0028	58 ± 0.35	63 ± 0.31	252 to 254	40.5 ± 0.19	67 ± 0.01	64 ± 0.05	3.306 ± 0.058	63 ± 0.31	28.3 ± 0.75	33 ± 0.01	32.5 ± 0.12	46 ± 0.02	30 ± 0.15	35 ± 0.15	lowest haemolytic property	IC50 (Pseudomonas aeruginosa): 29.7 µg/mL (≈ 106 µM)
Cc1ccc(-c2csc(C=O)c2)cc1 [2e, 4-p-Tolylthiophene-2-carbaldehyde]	–	-15 ± 0.04	-12 ± 0.037	3 ± 0.0014	54 ± 0.17	58 ± 0.01	58 to 60	62 ± 0.01	60 ± 0.03	53 ± 0.12	3.356 ± 0.075	58 ± 0.01	22.4 ± 0.13	28 ± 0.2	32 ± 0.05	44 ± 0.02	22.2 ± 0.14	41 ± 0.05	lowest haemolytic property	IC50 (Escherichia coli; read-out: IC50 against Escherichia coli): 40 µg/mL (≈ 198 µM)
COc1ccc(-c2csc(C=O)c2)cc1 [2f, 4-(4-Methoxyphenyl)thiophene-2-carbaldehyde]	–	5 ± 0.005	10 ± 0.028	25 ± 0.005	54 ± 0.23	61.4 ± 0.56	68 to 70	8 ± 0.01	64 ± 0.04	63 ± 0.11	6.083 ± 0.143	61.4 ± 0.56	24.4 ± 0.03	34 ± 0.05	9 ± 0.03	34 ± 0.04	36 ± 0.01	42 ± 0.7	highest haemolytic action	IC50 (Salmonella typhi; read-out: IC50 against Salmonella typhi): 37.9 µg/mL (≈ 174 µM)
O=C1O[C@H]([C@@H](O)CO)C(O)=C1O [Ascorbic Acid, ascorbic acid, reference compound]	–	40 ± 0.038	61 ± 0.004	77 ± 0.001	–	–	–	–	–	–	–	–	–	–	–	–	–	–	–	–
[H]/N=C(/N)N[C@H]1[C@H](O)[C@@H](O)[C@H](O[C@@H]2O[C@@H](C)[C@](O)(C=O)[C@H]2O[C@@H]2O[C@@H](CO)[C@H](O)[C@@H](O)[C@@H]2NC)[C@@H](N/C(N)=N\[H])[C@@H]1O [Streptomycin, streptomycin, reference compound]	–	–	–	–	53 ± 0.001	55 ± 0.03	–	63 ± 0.002	63 ± 0.002	53 ± 0.001	–	55 ± 0.034	34 ± 0.015	15 ± 0.034	29.3 ± 0.002	41.5 ± 0.002	33 ± 0.001	48 ± 0.05	–	IC50 (Pseudomonas aeruginosa): 35.2 µg/mL (≈ 60.5 µM)
Triton X-100 [Triton-X 100, reference compound]	–	–	–	–	–	–	–	–	–	–	–	–	–	–	–	–	–	–	–	Haemolytic activity, percentage of lysis (Average ± SD) [2]: 99.824 ± 0.536%
